Peptide text beside a SMILES is read from it.

For one assay, the target named is DAPg. The experiment in a line: UV titration, DAPg. The format is binding. As to conditions: for Kd DAPg: UV titration at 350 nm, 10 µM peptide, 10 mM sodium cacodylate pH 6.6, no KCl; for Kd DAPg, 100 mM KCl: UV titration, 10 mM sodium cacodylate 100 mM potassium chloride pH 6.6, two experiments. Further details: key to Kd DAPg, 100 mM KCl: Binding classified as non-specific (NS) showed no consistent or concentration-dependent pattern, under the tested conditions; key to Kd DAPg: NS = non-specific binding indicates where no significant pattern of binding was observed at the concentration range of the experiment. On the procedure: (§1) UV titrations were recorded using an Agilent Cary-60 UV/VIS spectrometer with a 10 mm path length black-walled quartz cuvette. Oligonucleotides (c-MycC27, c-MycC52, c-MycG27, c-MycG52, DAPc, DAPg, and dsDNA; sequences listed in Supplementary Table S1) were annealed as 250 µM stock solutions in 10 mM sodium cacodylate buffer (pH 6.6) in the presence or absence of 100 mM KCl. Spectra were recorded at room temperature over a wavelength range of 300–500 nm with 1 nm intervals. Buffer-only spectra were recorded and subtracted from each dataset as blanks. Peptide ligands were prepared as 1 mM stock solutions in DMSO and added to the cuvette at a final concentration of 10 µM in buffer prior to DNA addition. DNA stock was diluted to 50 µM in buffer and was added stepwise to the peptide solution to reach 2.5 µM final concentration, followed by additions from the 250 µM DNA stock to reach final DNA concentrations of 30 or 50 µM. The absorbance at 350 nm was monitored and plotted against DNA concentration. Binding curves were fitted using a one-site binding model in GraphPad Prism version 10.1.2, and Kd values were determined from normalized data to represent the DNA-ligand bound fraction.
(§2) Despite the demonstrable importance of the extended five-tract C-rich sequence within the c-Myc promoter, most studies looking at ligand binding use the shorter sequences. […] Although the iM-targeting antibody is specific for iM as a structure, it also binds multiple types of iM-structures.

The target in the next assay is DAPc. In words: UV titration, DAPc. Type of assay: binding. Further details: key to Kd DAPc, 100 mM KCl: Binding classified as non-specific (NS) showed no consistent or concentration-dependent pattern, under the tested conditions; key to Kd DAPc: NS = non-specific binding indicates where no significant pattern of binding was observed at the concentration range of the experiment. As to conditions: for Kd DAPc: UV titration at 350 nm, 10 µM peptide, 10 mM sodium cacodylate pH 6.6, no KCl; for Kd DAPc, 100 mM KCl: UV titration, 10 mM sodium cacodylate 100 mM potassium chloride pH 6.6, two experiments. On the procedure:
as §1, §2

The test system of assay [1] is c-Myc promoter (Del-4) Firefly luciferase reporter in HEK293 cells. The experiment in a line: Dual-luciferase reporter assay, c-Myc promoter. The format is cell-based, human. The following applies: HEK293, 4 h, 1, 5 or 10 µM peptide with Nanocin Pro; Firefly/Renilla normalised to 0.2% DMSO; P < 0.001. As to the method: Cell studies: HEK293 cells (ATCC CRL-1573™, passages 20–28), MCF-7 cells (ATCC HTB-22™, passages 21–28), and Panc-1 cells (ATCC CRL-1469™, passages 15–22) were cultured in Dulbecco's Modified Eagle's Medium (DMEM) medium supplemented with 10% fetal bovine serum (FBS; Gibco, UK) and maintained under standard cell culture conditions (37°C, 5% CO2). Cells were passaged every 3–4 days at ∼80% confluency. For experiments, the cells were seeded into six-well plates at a density of 1 × 10⁵ cells/well in DMEM containing 10% FBS. […] Cell proliferation was assessed at 4 and 24 h post-treatment using the CellTiter 96® Aqueous One Solution Cell Proliferation Assay (Promega, USA). For this, 20 µl of reagent was added per well, and absorbance at 490 nm was measured after 4 and 24 h using a SpectraMax iD3 plate reader (Molecular Devices, UK). Blank values (media without cells) were subtracted, and readings were normalized to DMSO-treated controls. […] Statistical significance was determined using one-way ANOVA followed by Holm–Šídák post-hoc analysis performed in GraphPad Prism version 10.1.2. […]

With `CC(=O)N1CCC[C@H]1C(=O)N[C@H](C(=O)N[C@@H](CC(N)=O)C(=O)N[C@H](C(=O)N[C@@H](CO)C(=O)NCC(=O)N[C@@H](CCCNC(=N)N)C(=O)N[C@@H](CC(N)=O)C(=O)N[C@@H](Cc1ccc(O)cc1)C(=O)N[C@@H](CC(C)C)C(=O)N[C@@H](Cc1ccccc1)C(=O)N[C@@H](CS)C(N)=O)C(C)C)[C@@H](C)O` [Pep-PTN] (Ac-PTNVSGRNYLFC-NH2), at DAPg, the “Kd DAPg” value is listed as “NS” and the “Kd DAPg, 100 mM KCl” value is “NS”. In addition, on DAPc, the “Kd DAPc” value is reported as “NS” and the “Kd DAPc, 100 mM KCl” value was “NS”. Also, the “luciferase activity (c-Myc promoter activity) vs vehicle-only control” value in assay [1] is given as “concentration-dependent decreases in luciferase activity”.

Consider `CC(=O)N[C@H](C(=O)N[C@@H](CO)C(=O)N[C@@H](CCC(=O)O)C(=O)N[C@@H](C)C(=O)N[C@@H](Cc1c[nH]c2ccccc12)C(=O)N[C@@H](CCCCN)C(=O)N[C@@H](CCC(=O)O)C(=O)N[C@H](C(=O)N[C@@H](CCCCN)C(=O)NCC(=O)N[C@@H](Cc1ccccc1)C(=O)N[C@@H](Cc1ccccc1)C(N)=O)C(C)C)C(C)C` [Pep-VSE] (Ac-VSEAWKEVKGFF-NH2), for which, at DAPg, the “Kd DAPg” value is recorded as “NS” and the “Kd DAPg, 100 mM KCl” value is “NS”. Moreover, on DAPc, the “Kd DAPc” value is listed as “NS” and the “Kd DAPc, 100 mM KCl” value is “NS”. In addition, the “luciferase activity (c-Myc promoter activity) vs vehicle-only control” value in assay [1] is “concentration-dependent decreases in luciferase activity”.

These data come from article PMC12596500, “Affinity-selected peptide ligands specifically bind i-motif DNA and modulate c-Myc gene expression” (Nucleic Acids Research, 2025).
